In ChEMBL document CHEMBL1800037, “Anti-proliferative activity of aguerin B and a new rare nor-guaianolide lactone isolated from the aerial parts of Centaurea deflexa” (Eur J Med Chem, 2011):
Activity calls are given as the source filed them. The rule behind the calls is not given here.

Columns and labels:
[1] = system: MIA PaCa-2; assay: Antiproliferative activity against human MIAPaCa2 cells after 48 hrs; format: functional, cell-based; conditions: MIA PaCa-2, 48 h
[2] = system: MIA PaCa-2; assay: Antiproliferative activity against human MIAPaCa2 cells after 72 hrs; format: functional, cell-based; conditions: MIA PaCa-2, 72 h
[3] = Antiproliferative activity against human COLO320 cells after 48 hrs; format: functional, cell-based; conditions: COLO 320, 48 h
[4] = Antiproliferative activity against human COLO320 cells after 72 hrs; format: functional, cell-based; conditions: COLO 320, 72 h
[5] = system: HEK293; assay: Antiproliferative activity against human HEK293 cells up to 100 uM; format: cell-based
[6] = system: MIA PaCa-2; assay: Induction of apoptosis in human MIAPaCa2 cells assessed as increase of interneucleosomal DNA fragmentation at 10 uM after 24 hrs; format: functional, cell-based
[7] = system: COLO 320; assay: Induction of apoptosis in human COLO320 cells assessed as increase of interneucleosomal DNA fragmentation at 10 uM after 24 hrs; format: functional, cell-based
[8] = system: MIA PaCa-2; assay: Antiproliferative activity against human MIAPaCa2 cells after 48 to 72 hrs; format: functional, cell-based
[9] = system: COLO 320; assay: Antiproliferative activity against human COLO320 cells after 48 to 72 hrs; format: functional, cell-based
[10] = system: MIA PaCa-2; assay: Antiproliferative activity against human MIAPaCa2 cells; format: functional, cell-based; conditions: TDE = time-dependent effect
[11] = system: COLO 320; assay: Antiproliferative activity against human COLO320 cells; format: functional, cell-based; conditions: TDE = time-dependent effect
[12] = system: MIA PaCa-2; assay: Induction of apoptosis in human MIAPaCa2 cells assessed as increase of interneucleosomal DNA fragmentation at 5 uM after 24 hrs relative to control; format: functional
[13] = system: COLO 320; assay: Induction of apoptosis in human COLO320 cells assessed as increase of interneucleosomal DNA fragmentation at 5 uM after 24 hrs relative to control; format: functional

Row | Compound | IC50 [1] [µM] | IC50 [2] [µM] | IC50 [3] [µM] | IC50 [4] [µM] | Activity [5] | Activity [6] | Activity [7] | Activity [8] | Activity [9] | Activity [10] | Activity [11] | fold change (FC) [12] | fold change (FC) [13]
1 | C=C1C[C@H](O)[C@@H]2[C@H](OC(=O)[C@H]2C)[C@H]2CC(=O)C[C@@H]12 | 25.7 | 15.9 | 10 | 6 | Non-toxic | inactive | inactive | Dose-dependent effect | Dose-dependent effect | tde | tde |  | 
2 | O=c1[nH]cc(F)c(=O)[nH]1 [FLUOROURACIL] | 14 | 7.4 | 10 | 8.7 |  |  |  |  |  |  |  |  | 
3 | C=C(C)C(=O)O[C@H]1CC(=C)[C@@H]2C[C@H](O)C(=C)[C@@H]2[C@H]2OC(=O)C(=C)[C@@H]21 [AGUERIN B] | 7.5 | 3.6 | 3.2 | 2.6 | Non-toxic |  |  | Dose-dependent effect | Dose-dependent effect | tde | tde | >2 | >2
